Experimental data published in patent US20020137173A1, “Membrane-associated sphingomyelinase derived from bovine brain, isolation method therefor and anti-sphingomyelinase monoclonal anitibody” (priority 2001, published 2002).
Entries after “also recorded” stand apart in the source; their conditions may differ. Where two headings read alike, the source gives them in different places.

Key:
N-mSMase ε = test: N-mSMase activity assay: hydrolysis of [N-methyl-14C]sphingomyelin with added cations, reducing agents or surfactants; type: biochemical, bovine; details: for influence of reducing agents on N-mSMase ε activity: 0.5-10 mM; for influence of glutathione-like agents on N-mSMase ε activity: 1, 3, 5 or 10 mM
Method: (§1) After being dried with a nitrogen stream, [N-methyl-^14C]sphingomyelin (choline residue labeled with ^14C) was suspended in ethanol. 10 μl of a sample was mixed with 100 μl of a reaction solution (10 mM MgSO4, 50 μM [N-methyl-^14C]sphingomyelin (c.a. 60,000 cpm), 2 mM sodium deoxycholate, 100 mM Tris-HCl (pH 7.0)) and incubated at 37° C. for 30 min. Addition of 320 μl of a mixture of chloroform/methanol (1:1 volume ratio) and 30 μl of 2N hydrochloride stopped the reaction. After vortexing and centrifuging the resulting mixture at 10,000× g, 200 μl of the aqueous layer was mixed with 2.5 ml of a scintillation cocktail, such as that manufactured by Packard Instrument Co., U.S.A., identified as “Insta gel-XF”, followed by measuring the radioactivity with the aid of a Packard Tri-carb liquid β-scintillation counter.
In order to examine the dependency of N-mSMase ε activity on Mg^2+, Fraction B obtained in Step 6 of Example 1 was desalted by being applied to a PD-10 column (Sephadex G-25, Pharmacia Biotechnology Co., Sweden) For use, the column was equilibrated twice with distilled water, in advance. The desalted protein fraction (corresponding to protein 10 ng) was measured for N-mSMase ε activity in the presence of […] of MgCl2 in the manner described in Experimental Example 1.
An examination was made of the influence of other cations, such as Ca^2+, Fe^3+, Fe^2+, Zn^2+, Cu^2+ and […] on the activity of N-mSMase ε. To a solution containing the desalted protein fraction (corresponding to protein 10 ng) obtained in C and 5 mM MgCl2, CaCl2, FeCl3, FeCl2, ZnCl2 or CuCl2 was added to yield a final concentration of 0.01, 0.02, 0.05, 0.1, 0.25 or 0.5 mM, followed by the measurement of N-mSMase ε activity in accordance with the procedure of Experimental Example 1.
After the addition of 10 μl of [N-methyl-^14C]sphingomyelin, the N-mSMase activity was measured according to the procedure of Experimental Example 1. For comparison, a Tris-HCl buffer containing no reducing agents was used as a control. The N-mSMase ε activity influenced by the reducing agents was expressed as a percentage relative to the control.
After being treated with 1, 3, 5 or 10 mM of GSSG, cystein, cystein-glycine or γ-glutaric acid-cystein, the activity of N-mSMase ε was measured in the same manner.
Sodium deoxycholate and Triton X-100 were selected as surfactant5 to be tested. The protein fraction obtained in C (corresponding to 10 ng of protein) was measured for N-mSMase ε activity in reaction solutions containing 0.5, 1, 2 and 5 mM of sodium deoxycholate, respectively, in accordance with the procedure of Experimental Example 1. In the case of Triton X-100, it was prepared at concentrations of 0.05, 0.01, 0.5 and 0.1%.

[1] = test system: partially purified N-mSMase from rat brain; details: Liu et al., J. Biol. Chem. 273, 34472-34479; cited from earlier work
[2] = Kinetic analysis (Lineweaver-Burk), substrate specificity and optimum pH of the purified enzyme; type: biochemical, bovine; details: 0.4, 1.0 and 2.0 mM sodium deoxycholate
Method: as §1
The N-mSMase ε prepared in Step 6 of Example 1 was subjected to Lineweaver-Burk analysis. In this regard, enzyme N-mSMase ε was used at amounts of 10 ng or less with the substrate sphingomyelin varying, in concentration, from 6.25 to 100 μM.
Separately, the same Lineweaver-Burk analysis was carried out, but in the presence of 0.4, 1.0 and 2.0 mM sodium deoxycholate. […]

[3] = desalted protein fraction (10 ng), 5 mM MgCl2, chloride salts 0.01-0.5 mM, read-out: IC50, inhibition of enzyme activity (hydrolysis of sphingomyelin) by cations

## O[C@H](CS)[C@H](O)CS (racemic) [DTT, dithiothreitol]
N-mSMase ε; preincubation 37° C. 10 min
  influence of reducing agents on N-mSMase ε activity: not inhibited
N-mSMase ε; preincubation 37° C. 10 min, listed as dithiothreitol
  influence of reducing agents on N-mSMase ε activity: neither dithiothreitol nor 2-mercaptoethanol has any influence
[1]
  effect on the activity of partially purified rat brain N-mSMase: promoted

## OCCS [2-mercaptoethanol]
N-mSMase ε; preincubation 37° C. 10 min
  influence of reducing agents on N-mSMase ε activity: not inhibited; also recorded: neither dithiothreitol nor 2-mercaptoethanol has any influence

## [Ca+2].[Cl-].[Cl-] [Ca^2+, CaCl2]
N-mSMase ε; concentration of 0.5 mM or less, 5 mM MgCl2
  influence on the activity of N-mSMase ε: no influence

## [Cl][Cu][Cl] [Cu^2+, CuCl2]
N-mSMase ε; [3]
  IC50: 28 µM

## [Cl-].[Cl-].[Mg+2] [Mg^2+, MgCl2]
N-mSMase ε; 1, 5, 10 and 25 mM MgCl2, desalted fraction B
  dependency of N-mSMase ε activity on Mg2+: Mg^2+-concentration dependent

## [Cl-].[Cl-].[Zn+2] [Zn^2+, ZnCl2]
N-mSMase ε; [3]
  IC50: 32 µM

## N[C@@H](CS)C(=O)O [cystein]
N-mSMase ε
  influence of glutathione-like agents on N-mSMase ε activity: inhibited; also recorded: reduction in the activity

## N[C@@H](CCC(=O)N[C@@H](CS)C(=O)NCC(=O)O)C(=O)O [glutathione]
N-mSMase ε; glutathione 10 mM
  activity of N-mSMase ε at 10 mM glutathione: fully inhibited; also recorded: completely inhibited
N-mSMase ε; glutathione up to 3 mM
  activity of N-mSMase ε with increasing glutathione concentration up to 3 mM: increases
N-mSMase ε; read-out: IC50, inhibition of sphingomyelinase activity by glutathione, glutathione above 3 mM, preincubation 37° C. 10 min, Tris-HCl pH 7.5
  IC50: 8000 µM

## N[C@@H](CCC(=O)N[C@@H](CS)C(=O)O)C(=O)O [γ-glutaric acid-cystein]
N-mSMase ε
  influence of glutathione-like agents on N-mSMase ε activity: inhibited; also recorded: reduction in the activity

## oxidized glutathione [GSSG]
N-mSMase ε
  influence of glutathione-like agents on N-mSMase ε activity: inhibited; also recorded: reduction in the activity

## phosphatidylserine
[1]
  effect on the activity of partially purified rat brain N-mSMase: promoted

## sodium deoxycholate
[2]
  effect on the Km value of N-mSMase ε: could not change
